Assay results taken from patent publication US20080125424A1, “Derivatives of urea and related diamines, methods for their manufacture, and uses therefor” (priority 2006, published 2008).
pEC50: −log10 of the molar value. Where a name gives a salt, the structure may show the parent alone.

Biological target: T1, human parathyroid cell Ca2+ receptor (hPCaR) (Homo sapiens, UniProt P41180)
T1 construct: expressed in transfected cells
T1 sequence (P41180 20-1078): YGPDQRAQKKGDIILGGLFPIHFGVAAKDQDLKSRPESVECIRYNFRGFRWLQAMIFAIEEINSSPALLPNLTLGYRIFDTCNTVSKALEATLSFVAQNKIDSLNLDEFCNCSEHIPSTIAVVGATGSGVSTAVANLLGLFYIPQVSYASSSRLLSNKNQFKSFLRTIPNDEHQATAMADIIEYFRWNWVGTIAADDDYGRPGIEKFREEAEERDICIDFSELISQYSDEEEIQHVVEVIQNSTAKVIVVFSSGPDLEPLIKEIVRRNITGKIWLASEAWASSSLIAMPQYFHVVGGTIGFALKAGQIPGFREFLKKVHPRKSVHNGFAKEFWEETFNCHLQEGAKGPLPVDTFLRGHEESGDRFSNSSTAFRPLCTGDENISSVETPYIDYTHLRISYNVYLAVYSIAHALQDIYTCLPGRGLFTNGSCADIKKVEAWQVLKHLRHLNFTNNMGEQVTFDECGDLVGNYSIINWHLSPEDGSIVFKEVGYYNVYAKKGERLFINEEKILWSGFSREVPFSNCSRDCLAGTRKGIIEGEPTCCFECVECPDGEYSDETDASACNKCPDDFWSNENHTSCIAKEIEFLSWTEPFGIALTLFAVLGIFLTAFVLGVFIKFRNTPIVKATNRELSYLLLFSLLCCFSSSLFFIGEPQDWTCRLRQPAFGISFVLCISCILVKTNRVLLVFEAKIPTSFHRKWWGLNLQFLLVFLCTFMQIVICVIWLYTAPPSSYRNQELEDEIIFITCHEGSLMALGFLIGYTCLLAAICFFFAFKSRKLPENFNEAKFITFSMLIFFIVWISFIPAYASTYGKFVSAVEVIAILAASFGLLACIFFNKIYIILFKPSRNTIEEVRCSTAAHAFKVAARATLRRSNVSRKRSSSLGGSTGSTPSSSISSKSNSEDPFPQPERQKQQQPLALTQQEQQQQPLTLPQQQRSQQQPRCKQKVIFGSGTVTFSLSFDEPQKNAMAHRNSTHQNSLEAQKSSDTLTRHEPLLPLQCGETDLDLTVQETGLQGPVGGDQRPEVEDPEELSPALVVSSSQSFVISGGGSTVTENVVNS
Experiment: [Ca2+]i fluorescence assay in HEK 293 4.0-7 cells expressing hPCaR
Assay type: cell-based
Conditions: buffer with 1 mM CaCl2
Procedure: The activities of the compounds of the present invention on calcium receptors were measured. In one embodiment, the measurement was performed in accordance with the method described in Example 4 of Nemeth et al., PCT/US95/13704 (International Publication No. WO96/12697) herein incorporated by reference.
A 4.0-kb NotI-HindIII fragment of the human parathyroid cell Ca^2+ receptor (hPCaR) cDNA was subcloned into the mammalian expression vector pCEP4 (Invitrogen) containing the hygromycin-resistant gene as a selectable marker. This plasmid was transfected into HEK 293 cells by calcium phosphate precipitation. Transfected cells were grown in Dulbecco's modified Eagle's medium containing 10% fetal bovine serum and hygromycin (200 μg/mL). Hygromycin-resistant colonies were subcloned and assayed for hPCaR mRNA by solution hybridization using a ^32P-labeled RNA probe complementary to the (4.0 kb) hPCaR sequence (Garrett, et al., J. Biol. Chem. 270, 12919-12925 (1995)). Clone 7 was used to assess the effects of compounds on [Ca^2+]i. This stably transfected cell line was termed HEK 293 4.0-7. For measurements of [Ca^2+]i, the cells were recovered from tissue culture flasks by brief treatment with Versene (Invitrogen; Containing 0.2 g/L EDTA.4Na in phosphate-buffered saline) and then seeded in collagen coated 384-well plates (BD Biosciences) at 20K cells per well in the growth media (same as above). Cells were grown in 37c TC incubator overnight. Then, the media was discarded and cells were loaded with 1× dye from Ca^2+ Assay Kit I (BD Biosciences) in parathyroid cell buffer (126 mM NaCl, 4 mM KCl, 1 mM MgSO4, 0.7 mM K2HPO4/KH2PO4, 20 mM HEPES.NaOH (pH 7.45)) containing 0.5% BSA and 1 mM CaCl2. Cells were loaded at room temperature for 90 minutes. Each test compound was added to the cells and the fluorescence was recorded by using excitation and emission wavelengths of 485 and 530 nm, respectively.

SMILES	pEC50
NS(=O)(=O)c1ccc(-c2csc(NC(=O)N(CCCC(=O)O)CCC(c3ccccc3)c3ccccc3)n2)cc1 [Example 124]	> 7.00
CS(=O)(=O)Nc1ccc(-c2nc(NC(=O)N(CCNC(=O)C3CCCNC3)CCC(c3ccccc3)c3ccccc3)sc2Cl)cc1 (stereo not shown) [Example 131, 3-(5-chloro-4-(4-(methylsulfonamido)phenyl)thiazol-2-yl)-1-(3,3-diphenylpropyl)-1-(2-(piperidine-3-carboxamido)ethyl)urea]	> 7.00
CS(=O)(=O)c1ccc(-c2csc(NC(=O)N(CCC(=O)O)CCC(c3ccccc3)c3ccccc3)n2)cc1 [Example 119, 3-(1-(3,3-diphenylpropyl)-3-(4-(4-(methylsulfonyl)phenyl)thiazol-2-yl)ureido)propanoic acid]	6.00 to 7.00
CSCCCN(CCC(c1ccccc1)c1ccccc1)C(=O)Nc1nc(-c2ccc(NS(C)(=O)=O)cc2)c(Cl)s1 [Example 138, 3-(5-chloro-4-(4-(methylsulfonamido)phenyl)thiazol-2-yl)-1-(3,3-diphenylpropyl)-1-(3-(methylthio)propyl)urea]	> 7.00
C[C@H]1CN(C(=O)CCN(CCC(c2ccccc2)c2ccccc2)C(=O)Nc2nc3ccccc3s2)CCN1 [Example 115, (S)-3-(benzo[d]thiazol-2-yl)-1-(3,3-diphenylpropyl)-1-(3-(3-methylpiperazin-1-yl)-3-oxopropyl)urea]	6.00 to 7.00
CS(=O)(=O)NCCN(CCC(c1ccccc1)c1ccccc1)C(=O)Nc1nc2ccccc2s1 [Example 167, N-{2-[3-Benzothiazol-2-yl-1-(3,3-diphenyl-propyl)-ureido]-ethyl}-methanesulfonamide]	6.00 to 7.00
CC(C)(C)OC(=O)N1CCC(NCCN(CCC(c2ccccc2)c2ccccc2)C(=O)Nc2nc3ccccc3s2)CC1 [Example 159, 4-{2-[3-Benzothiazol-2-yl-1-(3,3-diphenyl-propyl)-ureido]-ethylamino}-piperidine-1-carboxylic acid tert-butyl ester]	6.00 to 7.00
O=C(CCCN(CCC(c1ccccc1)c1ccccc1)C(=O)Nc1nc2ccccc2s1)N1CCOCC1 [Example 94, 3-(benzo[d]thiazol-2-yl)-1-(3,3-diphenylpropyl)-1-(4-morpholino-4-oxobutyl)urea]	6.00 to 7.00
CN(C)CC(C)(C)CNCCN(CCC(c1ccccc1)c1ccccc1)C(=O)Nc1nc2ccccc2s1 [Example 150, 3-Benzothiazol-2-yl-1-[2-(3-dimethylamino-2,2-dimethyl-propylamino)-ethyl]-1-(3,3-diphenyl-propyl)-urea trihydrochloride]	5.30 to 6.00
CN(C)C(=O)N1CCN(C(=O)CCCN(CCC(c2ccccc2)c2ccccc2)C(=O)Nc2nc3ccccc3s2)CC1 [Example 87, 3-(benzo[d]thiazol-2-yl)-1-(4-(4-(dimethylcarbamoyl)piperazin-1-yl)-4-oxobutyl)-1-(3,3-diphenylpropyl)urea]	> 7.00
CC(=O)Nc1ccc(S(=O)(=O)NCCN(CCC(c2ccccc2)c2ccccc2)C(=O)Nc2nc3ccccc3s2)cc1 [Example 170, N-(4-{2-[3-Benzothiazol-2-yl-1-(3,3-diphenylpropyl)-ureido]-ethylsulfamoyl}-phenyl)acetamide]	6.00 to 7.00
CC(C)(C)OC(=O)N1CCN(C(=O)CCCN(CCC(c2ccccc2)c2ccccc2)C(=O)Nc2nc3ccccc3s2)CC1 [Example 95, tert-butyl 4-(4-(3-(benzo[d]thiazol-2-yl)-1-(3,3-diphenylpropyl)ureido)butanoyl)piperazine-1-carboxylate]	6.00 to 7.00
CS(=O)(=O)c1ccc(-c2nc(NC(=O)N(CCCC(=O)O)CCC(c3ccccc3)c3ccccc3)sc2Cl)cc1 [Example 72, 4-(3-(5-chloro-4-(4-(methylsulfonyl)phenyl)thiazol-2-yl)-1-(3,3-diphenylpropyl)ureido)butanoic acid]	> 7.00
N#Cc1ccc(S(=O)(=O)NCCN(CCC(c2ccccc2)c2ccccc2)C(=O)Nc2nc3ccccc3s2)cc1 [Example 169, N-{2-[3-Benzothiazol-2-yl-1-(3,3-diphenyl-propyl)-ureido]-ethyl}-4-cyanobenzenesulfonamide]	5.30 to 6.00

Now from value to compound:

pEC50	SMILES
> 7.00	CS(=O)(=O)c1ccc(-c2csc(NC(=O)N(CCCC(=O)O)CCC(c3ccccc3)c3ccccc3)n2)cc1 [Example 79, 4-(1-(3,3-diphenylpropyl)-3-(4-(4-(methylsulfonyl)phenyl)thiazol-2-yl)ureido)butanoic acid]
6.00 to 7.00	CC(C)(C)OC(=O)CN1CCC(NCCN(CCC(c2ccccc2)c2ccccc2)C(=O)Nc2nc3ccccc3s2)CC1 [Example 158, (4-{2-[3-Benzothiazol-2-yl-1-(3,3-diphenyl-propyl)-ureido]-ethylamino}-piperidin-1-yl)acetic acid tert-butyl ester]
6.00 to 7.00	O=C(CCN(CCC(c1ccccc1)c1ccccc1)C(=O)Nc1nc2ccccc2s1)NC1CCCCC1 [Example 112, 3-(benzo[d]thiazol-2-yl)-1-(3-(cyclohexylamino)-3-oxopropyl)-1-(3,3-diphenylpropyl)urea]
6.00 to 7.00	CCOC(=O)CNCCN(CCC(c1ccccc1)c1ccccc1)C(=O)Nc1nc2ccccc2s1 [Example 151, {2-[3-Benzothiazol-2-yl-1-(3,3-diphenyl-propyl)-ureido]-ethylamino}-acetic acid ethyl ester]
6.00 to 7.00	CS(=O)(=O)Nc1ccc(-c2nc(NC(=O)NCCC(c3ccccc3)c3ccccc3)sc2Cl)cc1 [Example 176, 1-(5-chloro-4-(4-(methylsulfonamido)phenyl)thiazol-2-yl)-3-(3,3-diphenylpropyl)urea]
> 7.00	O=C1CC[C@@H](NCCN(CCC(c2ccccc2)c2ccccc2)C(=O)Nc2nc(-c3ccccc3)c(Cl)s2)CN1 [Example 147, (R)-3-(5-chloro-4-phenylthiazol-2-yl)-1-(3,3-diphenylpropyl)-1-(2-(6-oxopiperidin-3-ylamino)ethyl)urea]
> 7.00	CS(=O)(=O)Nc1ccc(-c2nc(NC(=O)N(CCOC(N)=O)CCC(c3ccccc3)c3ccccc3)sc2Cl)cc1 [Example 132, 2-(3-(5-chloro-4-(4-(methylsulfonamido)phenyl)thiazol-2-yl)-1-(3,3-diphenylpropyl)ureido)ethyl carbamate]
6.00 to 7.00	O=C(O)CCCN(CCC(c1ccccc1)c1ccccc1)C(=O)Nc1nc2ccccc2s1 [Example 104, 4-(3-(benzo[d]thiazol-2-yl)-1-(3,3-diphenylpropyl)ureido)butanoic acid]
6.00 to 7.00	CN(CCN(CCC(c1ccccc1)c1ccccc1)C(=O)Nc1nc2ccccc2s1)C1CCCCC1 [Example 163, 3-Benzothiazol-2-yl-1-[2-(cyclohexyl-methyl-amino)-ethyl]-1-(3,3-diphenyl-propyl)-urea]
6.00 to 7.00	COc1ccc(CNCCN(CCC(c2ccccc2)c2ccccc2)C(=O)Nc2nc3ccccc3s2)cn1 [Example 154, 3-Benzothiazol-2-yl-1-(3,3-diphenyl-propyl)-1-{2-[(6-methoxy-pyridin-3-ylmethyl)amino]-ethyl}-urea]
6.00 to 7.00	CC(C)(C)OC(=O)CCCN(CCC(c1ccccc1)c1ccccc1)C(=O)Nc1nc2ccccc2s1 [Example 101, tert-butyl 4-(3-(benzo[d]thiazol-2-yl)-1-(3,3-diphenylpropyl)ureido)butanoate]
